Data taken from BindingDB's records for doi:10.7270/Q2TX3CTT (Broad Institute, 2010).

Target: Glycogen synthase kinase-3 beta (Homo sapiens, UniProt P49841)
Experiment: concentration-response blocking of human GSK3B – biochemical, luminescence, cell-free homogeneous, retest, dose response (AID 434954)

Sequence of Glycogen synthase kinase-3 beta (P49841 whole entry): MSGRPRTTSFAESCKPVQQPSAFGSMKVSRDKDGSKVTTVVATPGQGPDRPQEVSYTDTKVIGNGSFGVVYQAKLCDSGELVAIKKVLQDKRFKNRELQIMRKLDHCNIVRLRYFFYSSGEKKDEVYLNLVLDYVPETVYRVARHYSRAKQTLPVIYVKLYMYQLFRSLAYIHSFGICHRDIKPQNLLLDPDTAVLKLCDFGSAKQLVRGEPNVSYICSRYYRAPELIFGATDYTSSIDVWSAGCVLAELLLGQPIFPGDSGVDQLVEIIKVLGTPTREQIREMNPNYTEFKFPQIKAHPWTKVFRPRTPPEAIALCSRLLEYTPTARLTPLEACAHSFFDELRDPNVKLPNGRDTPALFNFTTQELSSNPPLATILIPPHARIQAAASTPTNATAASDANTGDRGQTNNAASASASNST

Point of comparison: `CCOC(=O)c1cnc2ccc(OCC)cc2c1N1CCN(C)CC1` [MLS000047802], EC50 49.5 µM. Against it:
- CC(=NNC(=O)c1ccc(C(=O)NN=C(C)c2ccco2)o1)c1ccco1 [N'~2~,N'~5~-bis[1-(2-furyl)ethylidene]-2,5-furandicarbohydrazide] — higher, > 300 µM
- CC1(C)CC(=O)C=C(Nc2ccccc2O)C1 [3-[(2-hydroxyphenyl)amino]-5,5-dimethyl-cyclohex-2-en-1-one] — higher, > 300 µM
- CC(C)CCNc1nc(N)c([N+](=O)[O-])c(NCCO)n1 [2-[[6-amino-2-(3-methylbutylamino)-5-nitropyrimidin-4-yl]amino]ethanol] — 7.3-fold lower, 6.82 µM
- COc1ccc(-c2nn(-c3ccccc3)cc2CN=O)cc1OC [N-[[3-(3,4-dimethoxyphenyl)-1-phenylpyrazol-4-yl]methylidene]hydroxylamine] — 12-fold lower, 3.99 µM
- COc1cc(OC)cc(C(=O)NCC2CCCN(C(=O)c3csc(C)n3)C2)c1 (stereo unspecified) [MLS001072180] — higher, > 300 µM
- N#Cc1c2n(c3c(-c4ccccc4)ncnc13)CCC2 [MLS000104266] — within 1.5-fold, 40 µM
- CC(C)N1CC(C(=O)Nc2ccc(Br)c(Cl)c2)CC1=O (stereo unspecified) [N-(4-bromo-3-chlorophenyl)-5-oxo-1-propan-2-yl-3-pyrrolidinecarboxamide] — higher, > 300 µM
- O=C(CN1C(=O)CCC1=O)Nc1ccc(Cc2ccc(NC(=O)CN3C(=O)CCC3=O)cc2)cc1 [2-(2,5-dioxo-1-pyrrolidinyl)-N-[4-[[4-[[2-(2,5-dioxo-1-pyrrolidinyl)-1-oxoethyl]amino]phenyl]methyl]phenyl]acetamide] — higher, > 300 µM
- O=C(Nc1nccs1)C1CCCN1S(=O)(=O)c1cccc2cccnc12 (stereo unspecified) [SMR000096012] — 1.6-fold lower, 30.2 µM
- COc1ccc2nc(NC(=O)CSc3nc4cccnc4n3C)sc2c1 [MLS000072990] — 2.3-fold higher, 113 µM
- CN(Cc1ccccc1)Cc1nc2c([nH]1)c(=O)n(C)c(=O)n2C [1,3-dimethyl-8-[[methyl-(phenylmethyl)amino]methyl]-7H-purine-2,6-dione] — higher, > 300 µM
- COC(=O)C1=CN(Cc2ccc(OC)c(OC)c2)C=C(C(=O)OC)C1c1ccccc1F [1-(3,4-Dimethoxy-benzyl)-4-(2-fluoro-phenyl)-1,4-dihydro-pyridine-3,5-dicarboxylic acid dimethyl ester] — higher, > 300 µM
- Cc1nn(CC(=O)N2CCN(c3ccccn3)CC2)c(=O)c2cc3sccc3n12 [1-methyl-3-[2-oxidanylidene-2-(4-pyridin-2-ylpiperazin-1-yl)ethyl]thieno[3,4]pyrrolo[3,5-c][1,2,4]triazin-4-one] — higher, > 300 µM
- CCCCc1cc(=O)oc2cc(OS(C)(=O)=O)ccc12 [(4-butyl-2-oxidanylidene-chromen-7-yl) methanesulfonate] — higher, > 300 µM
- COc1ccccc1-c1c(C(F)(F)F)oc2c(CN(C)C)c(O)ccc2c1=O [MLS001206868] — higher, > 300 µM
- COc1cccc(C(CC(=O)NCc2ccco2)NS(=O)(=O)c2ccc(C)cc2)c1OC (stereo unspecified) [3-(2,3-dimethoxyphenyl)-N-(2-furylmethyl)-3-{[(4-methylphenyl)sulfonyl]amino}propanamide] — higher, > 300 µM
- Nc1nonc1-n1nnc(C(=O)NN=Cc2cccc(F)c2)c1CN1CCCCCC1 [1-(4-amino-1,2,5-oxadiazol-3-yl)-5-(1-azepanylmethyl)-N-[(3-fluorophenyl)methylideneamino]-4-triazolecarboxamide] — 19-fold lower, 2.56 µM
- O=C1Nc2ccccc2/C1=N/c1cccc([N+](=O)[O-])c1 [MLS001194693] — higher, > 300 µM
- Cc1c([N+](=O)[O-])c2ccc(O)cc2n1-c1ccccc1 [2-methyl-3-nitro-1-phenylindol-6-ol] — 23-fold lower, 2.14 µM
- CCOC(=O)c1sc(=S)n(-c2ccccc2OC)c1N — higher, > 300 µM
- CCOC(=O)c1c(C)[nH]c(C(=O)CSc2nccc(C)n2)c1C [MLS000391683] — higher, > 300 µM
- CCCCCCSc1ccc([C@H]2N[C@@](CC(C)C)(C(=O)OC)[C@H]3C(=O)N(C)C(=O)[C@@H]23)cc1 [SMR000814394] — higher, > 300 µM
- Nc1nonc1-n1nnc(C(=O)NN=Cc2ccc(Br)cc2)c1CN1CCOCC1 [SMR000646504] — higher, > 300 µM
- Cc1ccc(Nc2nc(N)c([N+](=O)[O-])c(NCc3ccccc3)n2)cc1 [N2-(4-methylphenyl)-5-nitro-N4-(phenylmethyl)pyrimidine-2,4,6-triamine] — higher, > 300 µM
- Oc1ccc(-c2nncn2-c2ccccc2)cc1 [SMR000274861] — 6.9-fold lower, 7.15 µM
- CCSc1ccc2nnc(-c3cccs3)n2n1 [6-ethylsulfanyl-3-thiophen-2-yl-[1,2,4]triazolo[4,3-b]pyridazine] — 4.4-fold lower, 11.3 µM
- COC(=O)c1nnn(-c2nonc2N)c1CSc1nc2ccccc2s1 [methyl 1-(4-amino-1,2,5-oxadiazol-3-yl)-5-(1,3-benzothiazol-2-ylsulfanylmethyl)triazole-4-carboxylate] — higher, > 300 µM
- COc1cc(C2C(C(=O)c3cccs3)C(=O)C(=O)N2CCN2CCOCC2)ccc1OCCC(C)C (stereo unspecified) [SMR000476070] — higher, > 300 µM
- Nc1nc(Nc2cccc(Cl)c2)nc(NCc2ccco2)c1[N+](=O)[O-] [MLS000333252] — 8.2-fold lower, 6.01 µM
- O=C1Nc2cc(C(=O)NCCCN3CCOCC3)ccc2S/C1=C/c1ccccc1F [(2E)-2-[(2-fluorophenyl)methylidene]-N-(3-morpholin-4-ylpropyl)-3-oxo-4H-1,4-benzothiazine-6-carboxamide] — 2.7-fold lower, 18.2 µM
- COc1cc(C2OCC3C(c4cc(OC)c(OC)c(OC)c4)OCC23)cc(OC)c1OC (stereo unspecified) — higher, > 300 µM
- CC(CC(=O)Nc1ccc(F)c([N+](=O)[O-])c1)c1ccccc1 (stereo unspecified) — higher, > 300 µM
- CCN(CC)CCOC(=O)c1ccc(NC(=S)NC(=O)C=Cc2ccco2)cc1 [MLS001178772] — higher, > 300 µM
- NS(=O)(=O)c1ccc(NC(=O)CN2C(=O)CCC2=O)cc1 [2-[2,5-bis(oxidanylidene)pyrrolidin-1-yl]-N-(4-sulfamoylphenyl)ethanamide] — higher, > 300 µM
- COc1ccc(S(=O)(=O)NCC(c2ccc3c(c2)OCO3)N2CCOCC2)cc1 (stereo unspecified) [N-[2-(1,3-benzodioxol-5-yl)-2-morpholin-4-ylethyl]-4-methoxybenzenesulfonamide] — higher, > 300 µM
- O=NCc1ccc(Oc2cccc(Cl)c2)c([N+](=O)[O-])c1 [MLS000694755] — within 1.5-fold, 38.2 µM
- CC(C)(C)C1CCc2onc(C(=O)Nc3ccc4c(c3)OCO4)c2C1 (stereo unspecified) [N-(1,3-benzodioxol-5-yl)-5-tert-butyl-4,5,6,7-tetrahydro-1,2-benzoxazole-3-carboxamide] — higher, > 300 µM
- O=C(Nc1ccccc1C(=O)N1CCOCC1)C1CCCO1 (stereo unspecified) [SMR000077483] — higher, > 300 µM
- NNc1ncnc2c1cnn2-c1ccccc1 [(1-phenylpyrazolo[3,4-d]pyrimidin-4-yl)diazane] — 3.9-fold lower, 12.8 µM
- O=C(Nc1ccccn1)Nc1ccccc1[N+](=O)[O-] [N-(2-nitrophenyl)-N'-pyridin-2-ylurea] — higher, > 300 µM
- COC(=O)c1nnn(-c2nonc2N)c1CSc1nnc(C)s1 [MLS000728193] — within 1.5-fold, 45.7 µM
- CCCC1=Nc2ncnn2C(c2cccs2)C1C(=O)OCC (stereo unspecified) [5-propyl-7-thiophen-2-yl-1,7-dihydro-[1,2,4]triazolo[1,5-a]pyrimidine-6-carboxylic acid ethyl ester] — 2.1-fold lower, 23.2 µM
- O=Cc1cn(CCC(=O)O)nc1-c1cccc(Br)c1 [3-[3-(3-bromophenyl)-4-formylpyrazol-1-yl]propanoic acid] — higher, > 300 µM
- Cc1ccc(N2CC(C(=O)NCCCn3ccnc3)CC2=O)cc1 (stereo unspecified) [MLS000069041] — higher, > 300 µM
- O=C(C[n+]1ccc(C=Cc2ccccc2)cc1)c1ccc2c(c1)OCCO2 — 2.5-fold higher, 125 µM
- O=C(O)c1cc(-c2ccc(CN=Nc3ccc(Cl)cc3)o2)ccc1Cl [2-chloro-5-{5-[2-(4-chlorophenyl)carbonohydrazonoyl]-2-furyl}benzoic acid] — higher, > 300 µM
- COc1ccc(OCCN(C)Cc2ccccc2)cc1 — higher, > 300 µM
- CCC(NC(=O)Cc1c(C)c2cc3c(cc2oc1=O)OC(C)(C)CC3)C(=O)O (stereo unspecified) [MLS001215946] — higher, > 300 µM
- Cc1cccc(COc2ccc(/C=C3/C(=O)N(C)C(=S)N3C)cc2)c1 [MLS001164511] — higher, > 300 µM
- c1ccc(CSc2ccc3nnc(-c4ccccn4)n3n2)cc1 — higher, > 300 µM
- Cc1ccc(Nc2nc(N)c([N+](=O)[O-])c(NCCO)n2)cc1C [SMR000436043] — 3.4-fold lower, 14.6 µM
- NS(=O)(=O)c1ccc(N2CCCCCC2)c([N+](=O)[O-])c1 [4-(azepan-1-yl)-3-nitrobenzenesulfonamide] — higher, > 300 µM
- CN(c1ncnc(N)c1[N+](=O)[O-])C1CCCCC1 — 19-fold lower, 2.57 µM
- N=C(NO)c1ccc(Oc2ccccc2Cl)c([N+](=O)[O-])c1 [4-(2-chlorophenoxy)-N'-hydroxy-3-nitrobenzenecarboximidamide] — higher, > 300 µM
- Cc1ccnc(NC(=O)c2ccccc2[N+](=O)[O-])c1 [N-(4-methylpyridin-2-yl)-2-nitro-benzamide] — higher, > 300 µM
- COc1cccc2cc(C(=O)CS(=O)(=O)c3ccc(C)cc3)c(=O)oc12 [8-methoxy-3-[2-(4-methylphenyl)sulfonylethanoyl]chromen-2-one] — higher, > 300 µM
- CCOC(=O)C1C(C(F)(F)F)=Nc2ncnn2C1c1cc(OC)ccc1OC (stereo unspecified) — higher, > 300 µM
- CCC(C)Nc1nc(N)c([N+](=O)[O-])c(NC2CCCCC2)n1 (stereo unspecified) [SMR000540397] — 21-fold lower, 2.39 µM
- Cc1oc2ccc(OC(=O)c3cccs3)cc2c1C(=O)OC(C)C [2-Methyl-5-(thiophene-2-carbonyloxy)-benzofuran-3-carboxylic acid isopropyl ester] — higher, > 300 µM
- O=C(NCc1cccs1)c1cc(C2CC2)on1 [SMR000127641] — higher, > 300 µM
- Nc1nc(NCC2CCCO2)nc(Nc2ccccc2)c1[N+](=O)[O-] (stereo unspecified) [5-nitro-2-N-(oxolan-2-ylmethyl)-4-N-phenylpyrimidine-2,4,6-triamine] — 23-fold lower, 2.17 µM
- Cn1nc(C(F)(F)F)c2cc(NC(=O)OCc3ccc(C(C)(C)C)cc3)sc21 [(4-tert-butylphenyl)methyl N-[1-methyl-3-(trifluoromethyl)thieno[2,3-c]pyrazol-5-yl]carbamate] — higher, > 300 µM
- CCCN(CCC)Cc1c(C(=O)NN=Cc2ccc(Br)cc2)nnn1-c1nonc1N [1-(4-azanyl-1,2,5-oxadiazol-3-yl)-N-[(4-bromophenyl)methylideneamino]-5-[(dipropylamino)methyl]-1,2,3-triazole-4-carboxamide] — higher, > 300 µM
- O=C(CSc1nnc(-c2cccnc2)n1-c1ccccc1)Nc1ccc2c(c1)OCO2 [MLS000050858] — higher, > 300 µM
- CCN(CC)Cc1c(C(=O)N/N=C/c2ccncc2)nnn1-c1nonc1N — 280-fold lower, 0.177 µM
